According to patent US6841236B2, “Articles containing thioxanthone dyes” (3M Innovative Properties Co., priority 2001, dated 2005):

What was measured:
[1] = Daytime color of polycarbonate sheet with dye laminated to retroreflective sheeting (Labsphere BFC-450 Bispectral Colorimeter); assay type: physicochemical; details: 0.2% dye in polycarbonate FCR-2407, 0.1 mm sheet on Scotchlite 3970; CIE D65, CIE 1931 observer
Experimental: Examples 8-10 were prepared with the compounds of Examples 1 and 2 and 6-methoxy-14H-anthra(2,1,9-mna)thioxanthene-14-one at a 0.2% loading in polycarbonate FCR-2407. Extrusion conditions for the polycarbonate were 260-304° C. using a single screw extruder. Optically transparent pressure sensitive adhesive with a liner on both sides of the adhesive was laminated to the 0.1 mm thick sheet of polycarbonate by removing one of the liners from the adhesive and then applying the exposed adhesive to the polycarbonate sheet with two passes of a roller using hand pressure.
The remaining liner was removed from the adhesive and the polycarbonate sheet construction was laminated to retroreflective sheeting commercially available from 3M under the trade designation “Scotchlite Diamond Grade LDP Reflective Sheeting Series 3970” (Scotchlite 3970) with two passes of a roller using hand pressure. The Scotchlite 3970 reflective sheeting had previously been laminated to a 7 cm wide by 28 cm long aluminum panel (6061T6 alloy with etch and desmut surface from Q Panel Company, Cleveland, Ohio) with two passes of a roller with hand pressure.
(§1) The daytime color of each article was measured using a Labsphere BFC-450 Bispectral Colorimeter commercially available from Labsphere, North Sutton, N.H. The daytime chromaticity (x,y), total luminance factor (YT), and fluorescence luminance factor (YF; which is a measure of the fluorescent properties of the article) calculated for the CIE D65 and the CIE 1931 observer are provided in TABLE II

[2] = Daytime color and visual inspection of PMMA film with dye laminated to retroreflective sheeting; assay type: physicochemical
Experimental: as §1
Examples 11-16 were prepared with the compounds of Examples 1-2 and 6-methoxy-14H-anthra(2,1,9-mna)thioxanthene-14-one in polymethylmethacrylate (PMMA) resin at the wt.-% of dye shown in TABLE III. The samples were prepared by dry blending the dye with a medium impact modified grade PMMA resin commercially available from Ineos Acrylics Inc., Cordova, Tenn. under the trade designation “CP923”. Films of 0.1 mm thickness were extruded through a single screw extruder with three heating zones set at 249° C. to 260° C. […] Examples 11 and 12 and Examples 13 and 14 had equal molar loadings of dye.
The resultant films were laminated to Scotchlite 3970 reflective sheeting on aluminum panels as described in Examples 8-10. Color values were measured as described in Examples 8-10 and the results set out in TABLE III.

[3] = dye 0.2 wt-% in PMMA CP923, 0.1 mm film on Scotchlite 3970
[4] = dye 0.38 wt-% in PMMA CP923, 0.1 mm film on Scotchlite 3970
[5] = dye 1.27 wt-% in PMMA CP923, 0.1 mm film on Scotchlite 3970

For CCCCCCCCOc1cc2c3ccccc3c(=O)c3ccc4c5ccccc5sc1c4c32 [Example 1, 6-n-Octyloxy-14H-anthra(2,1,9mna)thioxanthene-14-one], the “YF (fluorescence luminance factor)” value [1] was 14.6, the “YT (total luminance factor)” value [1] was 32.87 and the “x (daytime chromaticity)” value [1] was 0.5232. The “y (daytime chromaticity)” value [1] was 0.3132, the “fluorescence relative to articles with the 6-methoxy dye” value ([2]; PMMA films, equal molar loadings of dye, by fluorescence luminance factor) was “higher fluorescence” and the “X (daytime chromaticity)” value [2, 3] was 0.5210. The “YF (fluorescence luminance factor)” value [2, 3] was 16.83, the “YT (total luminance factor)” value [2, 3] was 30.85 and the “y (daytime chromaticity)” value [2, 3] was 0.3252. The “X (daytime chromaticity)” value [2, 4] was 0.5923, the “YF (fluorescence luminance factor)” value [2, 4] was 13.74 and the “YT (total luminance factor)” value [2, 4] was 19.96. The “y (daytime chromaticity)” value [2, 4] was 0.3022, the “X (daytime chromaticity)” value [2, 5] was 0.6305 and the “YF (fluorescence luminance factor)” value [2, 5] was 4.97. For the same compound, the “YT (total luminance factor)” value [2, 5] was 7.80, the “y (daytime chromaticity)” value [2, 5] was 0.3008 and the “visual inspection of film for undissolved dye” value ([2]; extruded PMMA CP923 film 0.1 mm, 6-methoxy dye at 1 wt.-%, dyes of Examples 1-2 at up to 1.27 wt-%) was “uniform appearance with no undissolved dye seen”.
